Laboratory results taken from patent publication US7241777B2, “Benzylimidazolyl substituted 2-quinoline and quinazoline derivatives for use as farnesyl transferase inhibitors” (Janssen Pharmaceutica N.V., priority 2002, dated 2007).
Where two headings read alike, the source gives them in different places.

What was measured:
[1] = target: farnesyl protein transferase (Homo sapiens, UniProt P49354+P49356); assay: In vitro assay for inhibition of farnesyl protein transferase; assay type: biochemical; details: for IC50: negative log value of the IC50-value; for inhibition at 0.1 µM: read-out: % of inhibition at 10^−7 M
Experimental: “In Vitro Assay for Inhibition of Farnesyl Protein Transferase”
An in vitro assay for inhibition of farnesyl transferase was performed essentially as described in WO 98/40383pages 33–34.

[2] = read-out: Enzyme activity pIC50 (converted)

| Structure (SMILES) | IC50 ([1]; read-out: pIC50 (converted)) [µM] | inhibition at 0.1 µM [1] [%] | melting point [°C] | IC50 [1, 2] [µM] |
| --- | --- | --- | --- | --- |
| N#Cc1ccc(Cn2cncc2C(O)c2ccc3c(c2)c(-c2cccc(Cl)c2)cc2nnnn23)cc1 (stereo not drawn) [Compound 14] | 0.0108 | 87 |  |  |
| CC(=O)NC(c1ccc2c(c1)c(-c1cccc(Cl)c1)cc(=O)n2C)c1cncn1Cc1ccccc1 (stereo not drawn) [Compound 13] |  | 65 | 210 | < 0.1 |
| Cn1c(=O)cc(-c2cccc(Cl)c2)c2cc(C(O)c3cncn3Cc3ccc(C#N)cc3)ccc21 (stereo not drawn) [Compound 3, 4-[[5-[[4-(3-chlorophenyl)-1,2-dihydro-1-methyl-2-oxo-6-quinolinyl]hydroxymethyl]-1H-imidazol-1-yl]methyl]-benzonitrile] | 0.00501 | 92 | 150 | 0.00545 |
| Cn1c(=O)cc(-c2cccc(Cl)c2)c2cc(C(NC3CC3)c3cncn3Cc3ccccc3)ccc21 (stereo not drawn) [Compound 9] |  | 44 |  | > 0.1 |
| COC(c1ccc2c(c1)c(-c1cccc(Cl)c1)cc(=O)n2C)c1cncn1Cc1ccccc1 (stereo not drawn) [Compound 10] |  | 43 |  | > 0.1 |
| Cn1c(=O)cc(-c2cccc(Cl)c2)c2cc(C(O)c3cncn3Cc3ccccc3)ccc21 (stereo not drawn) [Compound 8] |  |  | 188 |  |
| Cn1c(=O)cc(-c2cccc(Cl)c2)c2cc(C(N)c3cncn3Cc3ccccc3)ccc21 (stereo not drawn) [Compound 11] |  | 49 |  | > 0.1 |
| OC(c1ccc2c(c1)c(-c1cccc(Cl)c1)cc1nnnn12)c1cncn1Cc1ccc(Cl)cc1 (stereo not drawn) [Compound 5] |  | 32 | 140 | > 0.1 |
| O=C(c1ccc2c(c1)c(-c1cccc(Cl)c1)cc1nnnn12)c1cncn1Cc1ccc(Cl)cc1 [Compound 4] |  | 26 | 105 | > 0.1 |
| Cn1c(=O)cc(-c2cccc(Cl)c2)c2cc(C(c3cncn3Cc3ccccc3)n3ccnc3)ccc21 (stereo not drawn) [Compound 12] |  | 47 | 102 | > 0.1 |
| Cn1c(=O)cc(-c2cccc(Cl)c2)c2cc(C(=O)c3cncn3Cc3ccccc3)ccc21 [Compound 7] |  |  | 192 |  |
| N#Cc1ccc(Cn2c(=O)cc(-c3cccc(Cl)c3)c3cc(C(=O)c4cncn4Cc4ccc(Cl)cc4)ccc32)cc1 [Compound 17] |  | 33 |  | > 0.1 |
| O=C(c1ccc2c(c1)c(-c1cccc(Cl)c1)cc(=O)n2CC1CC1)c1cncn1Cc1ccc(Cl)cc1 [Compound 16] |  | 18 |  | > 0.1 |
